We go through 22 compounds from PubChem BioAssay (NCI).

Test systems include SK-MEL-5 melanoma; HOP-18 NSCLC; SNB-78 CNS; SK-MEL-28 melanoma; HL-60(TB) leukemia; HT29 colon; TK-10 renal; HCT-15 colon; LOX IMVI melanoma; SN12C renal.
Assay in all cases: NCI-60 cell line screen, 48 h

Where “and” joins values, the source holds several entries; their conditions need not be identical. Equal values may be shown once.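 Results reflect a 48-hour exposure of cells in 96-well plates to compound at five concentrations. The concentration for 50% growth inhibition is given as GI50. Definition used: TGI = concentration required for complete inhibition of growth.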

Regarding `CS(=O)(=O)OC1CCC2(C#N)CCC1C2=O` (stereo unspecified), the TGI in the assay on SK-MEL-5 melanoma, in the assay on HOP-18 NSCLC, in the assay with SNB-78 CNS, in the assay with SK-MEL-28 melanoma, with HL-60(TB) leukemia and in the assay with HT29 colon was more than 100 µM each time. Further, the TGI with TK-10 renal, in the assay with HCT-15 colon, in the assay with LOX IMVI melanoma and with SN12C renal was more than 100 µM each time.
As for `O=[N+]([O-])c1ccc(C[P+](c2ccccc2)(c2ccccc2)c2ccccc2)cc1`, the TGI in the assay on SK-MEL-5 melanoma, in the assay with HOP-18 NSCLC, with SK-MEL-28 melanoma, with HL-60(TB) leukemia, in the assay on HT29 colon and in the assay with TK-10 renal was more than 100 µM in each case. The TGI in the assay with HCT-15 colon, with LOX IMVI melanoma and in the assay with SN12C renal was more than 100 µM each time.
Take `Cc1c2ccncc2c(C)c2c1[nH]c1ccc(OC(C)C)cc12`: the TGI in the assay with SK-MEL-5 melanoma came to 3.2 µM; in the assay on HOP-18 NSCLC, 2.93 µM; with SNB-78 CNS, 6.05 µM; in the assay on SK-MEL-28 melanoma, 3.21 µM; in the assay on HL-60(TB) leukemia, 4.46 µM; in the assay with HT29 colon, 2.64 µM. Besides, the TGI in the assay with TK-10 renal stood at 3.37 µM; in the assay with HCT-15 colon it was 2.74 µM; in the assay with LOX IMVI melanoma, 2.51 µM; in the assay with SN12C renal it was 2.45 µM.
On to `O=C(O)CCC(=O)N1c2ccccc2CC1c1c[nH]c2ccccc12` (stereo unspecified), for which the TGI in the assay with SK-MEL-5 melanoma, with HOP-18 NSCLC, in the assay on SNB-78 CNS, with SK-MEL-28 melanoma, in the assay on HL-60(TB) leukemia and in the assay on HT29 colon was more than 100 µM each time. Further, the TGI in the assay on TK-10 renal, with HCT-15 colon, with LOX IMVI melanoma and in the assay with SN12C renal was more than 100 µM each time.
As to `O=C1N(C2CCCCC2)CC12CCCCC2`, the TGI with SK-MEL-5 melanoma, in the assay on HOP-18 NSCLC, in the assay on SNB-78 CNS, with SK-MEL-28 melanoma, in the assay with HL-60(TB) leukemia and in the assay with TK-10 renal was more than 100 µM each time. Also, the TGI in the assay with HCT-15 colon, in the assay on LOX IMVI melanoma and in the assay on SN12C renal was more than 100 µM each time.
For `C[C@]12CC[C@@H]3c4ccc(OC(=O)N(CCCl)CCCl)cc4CC[C@H]3[C@@H]1CC[C@@H]2O`, the GI50 is 1.95 µM in the assay on SK-MEL-5 melanoma; 3.75 µM with SK-MEL-28 melanoma; 0.731 µM in the assay on HL-60(TB) leukemia; 2.41 µM in the assay with HT29 colon; 3.04 µM with TK-10 renal; 0.875 µM in the assay on HCT-15 colon. The values for the GI50 in the assay on LOX IMVI melanoma and with SN12C renal were 2.43 µM and 3.37 µM, respectively. The TGI with SK-MEL-5 melanoma was 9.27 µM; in the assay with HOP-18 NSCLC, 14 µM; with SNB-78 CNS, 17.3 µM; in the assay on TK-10 renal it was 9.98 µM; in the assay on LOX IMVI melanoma, 14.3 µM; with SN12C renal, 17.4 µM and 3.48 µM.
For `Cc1nnn[n-]1.N.N.N.N.N.[Cl-].[Co+3]`, the GI50 in the assay on SK-MEL-5 melanoma was 1.86 µM; with HOP-18 NSCLC it was more than 100 µM; with SK-MEL-28 melanoma, more than 100 µM; with HL-60(TB) leukemia it was more than 100 µM; in the assay on HT29 colon, more than 100 µM; in the assay on TK-10 renal it was more than 100 µM. The GI50 in the assay with LOX IMVI melanoma and in the assay with SN12C renal was more than 100 µM each time. Further, the TGI in the assay on SK-MEL-5 melanoma was 10.7 µM; with HOP-18 NSCLC, more than 100 µM; in the assay with SK-MEL-28 melanoma, more than 100 µM; with HL-60(TB) leukemia it was more than 100 µM; with HT29 colon it was more than 100 µM; with TK-10 renal, more than 100 µM. In addition, the TGI with LOX IMVI melanoma and in the assay with SN12C renal was more than 100 µM in each case.
For the compound `COc1cc(Br)c(C=Nc2cccc3cc(OC)c(OC)cc23)cc1OC`, the TGI was more than 100 µM in the assay with SK-MEL-5 melanoma; more than 100 µM in the assay on HOP-18 NSCLC; more than 100 µM in the assay with SNB-78 CNS; more than 100 µM with SK-MEL-28 melanoma; 39.5 µM in the assay on HL-60(TB) leukemia; 98.4 µM with HT29 colon. Further, the TGI with TK-10 renal, with HCT-15 colon, in the assay with LOX IMVI melanoma and in the assay on SN12C renal was more than 100 µM throughout.
In the case of `C/C(=N\NC(=S)N1CC2CCC(CC2)C1)c1nccs1`, the TGI is 5.24 µM with SK-MEL-5 melanoma; 7.95 µM in the assay with HOP-18 NSCLC; 41.8 µM with SNB-78 CNS; 19.3 µM in the assay on SK-MEL-28 melanoma; 0.0184 µM in the assay with HL-60(TB) leukemia; 15.9 µM in the assay with HT29 colon. The TGI amounted to 15.9 µM in the assay on TK-10 renal, 20.4 µM with HCT-15 colon, 9.09 µM with LOX IMVI melanoma and 12.5 µM in the assay on SN12C renal.
Turning to `N#CC1(C#N)C2(c3ccccc3)OC(c3ccccc3)(c3cc4ccccc4cc32)C1(C#N)C#N`, the TGI in the assay with SK-MEL-5 melanoma turned out to be 27.8 µM; in the assay with HOP-18 NSCLC it was 17.8 µM; in the assay with SK-MEL-28 melanoma it was 26.1 µM; in the assay with HL-60(TB) leukemia, 7.05 µM; in the assay with HT29 colon it was 29.3 µM; in the assay on TK-10 renal, 41 µM. In addition, the figures for the TGI with HCT-15 colon, with LOX IMVI melanoma and with SN12C renal were 26.7 µM, 11.1 µM and 36.2 µM, respectively.
With `O/N=C1/C(=C/c2ccc3c(c2)OCO3)CCCC1C(NO)c1ccc2c(c1)OCO2` (stereo unspecified), the TGI in the assay with SK-MEL-5 melanoma came to 32.3 µM; in the assay with HOP-18 NSCLC, 42.5 µM; with SNB-78 CNS, 87.7 µM; with SK-MEL-28 melanoma, 40.1 µM; in the assay on HL-60(TB) leukemia, 36.4 µM; with HT29 colon, 30.4 µM. Also, the values for the TGI with TK-10 renal, in the assay on HCT-15 colon and in the assay with SN12C renal were 71.6 µM, 83.8 µM and 40.9 µM, respectively.
Consider `C=CCNC(=O)N(CCCCC(NC(C)=O)C(=O)NCc1ccccc1)Cc1ccccc1` (stereo unspecified), for which the TGI in the assay with SK-MEL-5 melanoma, in the assay with HOP-18 NSCLC, in the assay with SK-MEL-28 melanoma, in the assay on HL-60(TB) leukemia, with HT29 colon and with TK-10 renal was more than 100 µM throughout. Besides, the TGI in the assay on HCT-15 colon, in the assay with LOX IMVI melanoma and with SN12C renal was more than 100 µM throughout.
`COc1ccc(C23C(=O)c4ccccc4N2O[C@H]2C(=O)N(c4ccccc4)C(=O)[C@H]23)cc1` (stereo partly specified): the TGI in the assay with SK-MEL-5 melanoma, in the assay on HOP-18 NSCLC, in the assay with SNB-78 CNS, in the assay with SK-MEL-28 melanoma, in the assay with HL-60(TB) leukemia and with HT29 colon was more than 100 µM in each case. Also, the TGI in the assay on TK-10 renal, in the assay on HCT-15 colon, in the assay with LOX IMVI melanoma and in the assay on SN12C renal was more than 100 µM throughout.
As to `CC(C)=CC1C[C@H](C2CC=C3C2(C)CCC2[C@@]3(C)C(=O)CC3[C@]2(C)C=CC(=O)[C@]3(C)CO)CO1` (stereo partly specified), the TGI stood at 25 µM in the assay on SK-MEL-5 melanoma; 30.1 µM in the assay with HOP-18 NSCLC; 48.4 µM in the assay on SNB-78 CNS; 19 µM in the assay on SK-MEL-28 melanoma; 9.42 µM in the assay with HL-60(TB) leukemia; 18.2 µM in the assay with HT29 colon. Moreover, the TGI was found to be 52.4 µM with TK-10 renal, 40.5 µM in the assay with HCT-15 colon, 9.45 µM in the assay on LOX IMVI melanoma and 63.2 µM with SN12C renal.
Consider `COC(=O)CC1C[C@H](C#N)N(C(=O)c2ccccc2)C[C@@H]1CC[N+](=O)[O-]` (stereo partly specified), for which the TGI in the assay with SK-MEL-5 melanoma, with HOP-18 NSCLC, with SNB-78 CNS, in the assay with SK-MEL-28 melanoma, in the assay with HL-60(TB) leukemia and in the assay with HT29 colon was more than 100 µM each time. For the same compound, the TGI with TK-10 renal, in the assay with HCT-15 colon, with LOX IMVI melanoma and with SN12C renal was more than 100 µM throughout.
Take `COc1ccc(/C=N/N=C(\N)NO)cc1O`: the TGI in the assay on SK-MEL-5 melanoma, with HOP-18 NSCLC, in the assay with SNB-78 CNS, in the assay with SK-MEL-28 melanoma, in the assay with HT29 colon and with HCT-15 colon was more than 100 µM throughout. Besides, the TGI in the assay on LOX IMVI melanoma and in the assay on SN12C renal was more than 100 µM in each case.
`O=C(O)CCN(CCCCN(CCC(=O)O)CCC(=O)O)CCC(=O)O`: the TGI in the assay on SK-MEL-5 melanoma, with HOP-18 NSCLC, in the assay on SK-MEL-28 melanoma, in the assay with HL-60(TB) leukemia, with HT29 colon and in the assay on TK-10 renal was more than 100 µM each time. In addition, the TGI in the assay on HCT-15 colon, in the assay with LOX IMVI melanoma and in the assay with SN12C renal was more than 100 µM in each case.
`N.N.N.N.N.NC(=O)c1nn[n-]n1.[Cl-].[Co+3]`: the GI50 in the assay on SK-MEL-5 melanoma, with HOP-18 NSCLC, in the assay on SNB-78 CNS, in the assay on SK-MEL-28 melanoma, in the assay on HL-60(TB) leukemia and with HT29 colon was more than 100 µM throughout. The GI50 with TK-10 renal, in the assay on HCT-15 colon, in the assay on LOX IMVI melanoma and in the assay with SN12C renal was more than 100 µM each time. Moreover, the TGI in the assay on SK-MEL-5 melanoma, in the assay on HOP-18 NSCLC, in the assay with SNB-78 CNS, with SK-MEL-28 melanoma, with HL-60(TB) leukemia and in the assay on HT29 colon was more than 100 µM throughout. Moreover, the TGI with TK-10 renal, in the assay with HCT-15 colon, with LOX IMVI melanoma and in the assay with SN12C renal was more than 100 µM throughout.
Take `CN(/N=C/c1cccc2cccnc12)c1ccc([N+](=O)[O-])cc1[N+](=O)[O-]`: the TGI in the assay with SK-MEL-5 melanoma is more than 100 µM; in the assay with HOP-18 NSCLC it was more than 100 µM; in the assay on SNB-78 CNS, 61.6 µM; in the assay on SK-MEL-28 melanoma it was more than 100 µM; with HL-60(TB) leukemia, more than 68.1 µM; with HT29 colon it was more than 100 µM. Besides, the TGI in the assay on TK-10 renal is 54 µM; in the assay with HCT-15 colon, more than 100 µM; in the assay with LOX IMVI melanoma, more than 100 µM; in the assay with SN12C renal, more than 100 µM.
Consider `Cc1cc(CC(=O)NCCO)n(CCO)c(=O)c1`, for which the TGI in the assay on SK-MEL-5 melanoma, in the assay with HOP-18 NSCLC, in the assay with SNB-78 CNS, in the assay with SK-MEL-28 melanoma, in the assay with HL-60(TB) leukemia and in the assay with HT29 colon was more than 100 µM in each case. Also, the TGI with TK-10 renal, with LOX IMVI melanoma and in the assay on SN12C renal was more than 100 µM each time.
With `NC(=O)C(=O)N/N=C1\C(=O)N(c2ccc(Cl)cc2Cl)C(=O)C1C(=O)Nc1ccc(Cl)cc1Cl` (stereo unspecified), the TGI in the assay on SK-MEL-5 melanoma, with HOP-18 NSCLC, in the assay on SNB-78 CNS, in the assay with SK-MEL-28 melanoma, in the assay on HL-60(TB) leukemia and in the assay with HT29 colon was more than 100 µM each time. In addition, the TGI with TK-10 renal, in the assay on HCT-15 colon, in the assay on LOX IMVI melanoma and with SN12C renal was more than 100 µM in each case.
As to `O=C(O)CN(CC(=O)O)Cc1cc(C#Cc2ccc(C#Cc3ccccc3)cc2)cc(CN(CC(=O)O)CC(=O)O)n1`, the TGI is more than 71.5 µM in the assay on SK-MEL-5 melanoma; more than 100 µM with HOP-18 NSCLC; more than 100 µM with SNB-78 CNS; more than 100 µM with SK-MEL-28 melanoma; more than 56.7 µM in the assay with HL-60(TB) leukemia; more than 100 µM with HT29 colon. The TGI is more than 86.2 µM with TK-10 renal, more than 59.6 µM in the assay on HCT-15 colon, 45.8 µM in the assay with LOX IMVI melanoma and more than 100 µM in the assay on SN12C renal.
